Test results: US10851083B2, “Benzoimidazoles as prolyl hydroxylase inhibitors” (Janssen Pharmaceutica NV, priority 2008, dated 2020)

Tests used:
human PHD2181-417 = human PHD2181-417 (Homo sapiens (Human), UniProt Q9GZT9); experiment: PHD2 enzyme activity assay ([14C]-succinic acid production); format: biochemical; conditions: PHD2181-417 polypeptide, HIF-1α peptide 10 μM, [5-14C]-2-oxoglutaric acid; 30 min pre-incubation; tested 10 μM to 3 nM;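 also: reaction ran 10 min with compound in Tris pH 7.5 buffer with catalase, DTT and ascorbate, labelled succinate freed of leftover 2-oxoglutarate by DNP precipitation, then beta counted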
Chain of human PHD2181-417 (Q9GZT9 181-417): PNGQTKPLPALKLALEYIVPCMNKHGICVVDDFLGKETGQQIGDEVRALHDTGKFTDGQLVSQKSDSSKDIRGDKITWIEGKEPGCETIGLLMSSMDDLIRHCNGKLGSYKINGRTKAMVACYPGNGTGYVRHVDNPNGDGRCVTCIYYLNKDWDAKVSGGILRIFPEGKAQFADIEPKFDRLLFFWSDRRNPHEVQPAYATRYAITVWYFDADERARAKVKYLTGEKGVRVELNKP

Hep-3B cells = experiment: Cellular assay: EPO secretion in Hep-3B cells; format: cell-based, human; design: EPO secretion, % of control compound: dose or concentration left out as unconfirmed; conditions: Homo sapiens, Hep3B, 24 h, EPO secretion as percentage of control compound 7-[(4-Chloro-phenyl)-(5-methyl-isoxazol-3-ylamino)-methyl]-quinolin-8-ol, read-out: Cellular % EPO Stimulation

Compound	Enzyme pIC50 (human PHD2181-417)	EPO secretion, % of control compound (Hep-3B cells) [%]
CCCS(=O)(=O)c1cc2[nH]c(-n3cc(C(=O)O)cn3)nc2cc1OC(F)(F)F [Example 106, 1-[6-(Propane-1-sulfonyl)-5-trifluoromethoxy-1H-benzoimidazol-2-yl]-1H-pyrazole-4-carboxylic Acid]	7.5	124
COc1cccc(Sc2cc3nc(-n4cc(C(=O)O)cn4)[nH]c3cc2Cl)c1 [Example 64, 1-[6-Chloro-5-(3-methoxy-phenylsulfanyl)-1H-benzoimidazol-2-yl]-1H-pyrazole-4-carboxylic Acid]	6.9	38.3
O=C(O)c1cnn(-c2nc3cc(SCCc4ccccc4)c(Cl)cc3[nH]2)c1 [Example 70, 1-(6-Chloro-5-phenethylsulfanyl-1H-benzoimidazol-2-yl)-1H-pyrazole-4-carboxylic Acid]	6.7	74.2
O=C(O)c1cnn(-c2nc3cc(F)c(N4CCCCC4)cc3[nH]2)c1 [Example 118, 1-(5-Fluoro-6-piperidin-1-yl-1H-benzoimidazol-2-yl)-1H-pyrazole-4-carboxylic Acid]	6.8	152
O=C(O)c1cnn(-c2nc3c(ccc4ccccc43)[nH]2)c1 [Example 115, 1-(3H-Naphtho[1,2-d]imidazol-2-yl)-1H-pyrazole-4-carboxylic Acid]	6.1	50
COc1ccc(Sc2cc3nc(-n4cc(C(=O)O)cn4)[nH]c3cc2C(F)(F)F)cc1 [Example 160, 1-[5-(4-Methoxy-phenylsulfanyl)-6-trifluoromethyl-1H-benzoimidazol-2-yl]-1H-pyrazole-4-carboxylic Acid]	7.5	36.1
CS(=O)(=O)c1cc2[nH]c(-n3cc(C(=O)O)cn3)nc2cc1C(F)(F)F [Example 97, 1-(6-Methanesulfonyl-5-trifluoromethyl-1H-benzoimidazol-2-yl)-1H-pyrazole-4-carboxylic Acid]	7.6	75.9
COc1cccc(S(=O)(=O)c2cc3nc(-n4cc(C(=O)O)cn4)[nH]c3cc2Cl)c1 [Example 88, 1-[6-Chloro-5-(3-methoxy-benzenesulfonyl)-1H-benzoimidazol-2-yl]-1H-pyrazole-4-carboxylic Acid]	7.4	69.4
O=C(O)c1cnn(-c2nc3cc(S(=O)(=O)c4ccccc4)c(Cl)cc3[nH]2)c1 [Example 83, 1-(5-Benzenesulfonyl-6-chloro-1H-benzoimidazol-2-yl)-1H-pyrazole-4-carboxylic Acid]	7.57	96.7
O=C(O)c1cnn(-c2nc3cc(N4CCCCC4)c(OC(F)(F)F)cc3[nH]2)c1 [Example 117, 1-(5-Piperidin-1-yl-6-trifluoromethoxy-1H-benzoimidazol-2-yl)-1H-pyrazole-4-carboxylic Acid]	6.5	80

Second part, led by results:

Enzyme pIC50 (human PHD2181-417)	Compound	EPO secretion, % of control compound (Hep-3B cells) [%]
7.5	O=C(O)c1cnn(-c2nc3cc([N+](=O)[O-])c(Cl)cc3[nH]2)c1 [Example 40, 1-(6-Chloro-5-nitro-1H-benzoimidazol-2-yl)-1H-pyrazole-4-carboxylic Acid]	93.4
6.4	CCC(=O)Nc1cc2nc(-n3cc(C(=O)O)cn3)[nH]c2cc1Cl [Example 140, 1-(6-Chloro-5-propionylamino-1H-benzoimidazol-2-yl)-1H-pyrazole-4-carboxylic Acid]	10
6.8	O=C(O)c1cnn(-c2nc3cc(NS(=O)(=O)C4CC4)c(Cl)cc3[nH]2)c1 [Example 135, 1-(6-Chloro-5-cyclopropanesulfonylamino-1H-benzoimidazol-2-yl)-1H-pyrazole-4-carboxylic Acid]	17
7.2	CC[S+]([O-])c1cc2[nH]c(-n3cc(C(=O)O)cn3)nc2cc1Cl (stereo not drawn) [Example 95, 1-(5-Chloro-6-ethanesulfinyl-1H-benzoimidazol-2-yl)-1H-pyrazole-4-carboxylic Acid]	46.3
6.7	O=C(O)c1cnn(-c2nc3cc(N4CCCC4)c(Cl)cc3[nH]2)c1 [Example 43, 1-(6-Chloro-5-pyrrolidin-1-yl-1H-benzoimidazol-2-yl)-1H-pyrazole-4-carboxylic Acid]	178
